PMC10590756, “Glutarate regulates T cell metabolism and anti-tumour immunity” (Nature Metabolism, 2023)
pIC50: −log10 of the molar value.

Legend:
[1] = tested on: HIF-P4H activity against pFLAG-Gal4-mHIF-1α NTAD; assay: HIF-PH activity luciferase reporter assay in MEFs; assay type: cell-based, mouse
Excerpt: To test HIF-P4H inhibition via DEG treatment in a cellular system, we used a luciferase reporter assay driven by a Gal4 response element (GRE-luc), pFLAG-Gal4-mHIF-1α N-terminal transcription activation domain (NTAD)[35]. The NTAD contains proline residues that are hydroxylated by HIF-P4H enzymes to target the protein for degradation; thus, luciferase expression in this assay is controlled by HIF-P4H hydroxylation activity against the pFLAG-Gal4-mHIF-1α NTAD.
MEFs were transiently transfected using Lipofectamine 2000 (Thermo Fisher Scientific) with 20 ng per expression plasmid for 2 × 10^4 cells per well in a 96-well plate. Cells were treated with transfection mixes for 8 h.
Generation of plasmids for the HIF-PH activity luciferase reporter assay has been described previously: luciferase reporter driven by GRE-luc pFLAG-Gal4-mHIF-1α NTAD[35]. […] After 8 h of transient transfection with expression plasmids, cells were treated with experimental medium containing metabolites and drugs as described in the figure legends for 16 h; then, the luciferase signal assessed using the Steady-Glo Luciferase Assay System (Promega Corporation) detected using a luminometer. […]

human CD8^+ T cells = assay: Memory populations (CCR7/CD45RO) of human CD8^+ T cells by flow cytometry; assay type: cell-based
Description: This contrasts with octyl ester S-2HG, which decreases cell growth from 400 µM (Extended Data Fig. 1c).
Human PBMCs were obtained from NHSBT: Addenbrooke’s Hospital, Cambridge, UK or the Karolinska Hospital Service, Sweden. Ethical approval was obtained from the East of England-Cambridge Central Research Ethics Committee (06/Q0108/281) and consent was obtained from all participants. PBMCs from healthy donors were isolated from blood using discontinuous plasma Percoll gradients. Naive CD8^+ T cells were isolated using the Naive CD8^+ T Cell Isolation Kit (catalogue no. 130-093-244, Miltenyi Biotec), in accordance with the manufacturer’s instructions. Total CD8^+ T cells were purified by either positive or negative magnetic bead sorting (catalogue nos. 130-045-201 and 130-096-495, Miltenyi Biotec). All human CD8^+ T cells were activated with anti-human CD3/CD28 Dynabeads (catalogue no. 11131D, Thermo Fisher Scientific) at a 1:1 cell:bead ratio and cultured in complete RPMI 1640 supplemented with 10% FCS, 100 U ml^−1 penicillin, 100 µg ml^−1 streptomycin and 30 U ml^−1 interleukin-2 (IL-2) (catalogue no. 11147528001, Sigma-Aldrich).
Single-cell suspensions were stained with LIVE/DEAD Fixable Near-IR Dead Cell Stain Kit (catalogue no. 10119, Thermo Fisher Scientific) followed by surface and intracellular staining with fluorochrome-labelled antibodies (Supplementary Tables 1 and 2). Staining of cytoplasmic and nuclear antigens was performed using the Cytofix/Cytoperm Fixation/Permeabilization Kit (catalogue no. 554714, BD Biosciences) and the Transcription Factor Buffer Set (catalogue no. 562725, BD Biosciences), respectively. For the proliferation assays, cells were loaded with CellTrace Violet (catalogue no. C34557, Thermo Fisher Scientific) according to the manufacturer’s instructions. Samples were acquired on an Aurora (Cytek Biosciences).

human TET2 enzyme = biological target: T1, human TET2 enzyme (Homo sapiens, UniProt Q6N021); assay: Cell-free TET2 enzymatic activity assay; assay type: biochemical
T1 construct: purchased BPS Bioscience 50162
Description: A total of 2 nM of the human TET2 enzyme (catalogue no. 50162, BPS Bioscience) or 4 nM of the human KDM4C enzyme (catalogue no. 50105, BPS Bioscience) was incubated with the substrate of 30 nM single-stranded DNA (ssBiotin 26 nt Me-C Oligo, Genscript), in the presence of αKG (catalogue no. K3752, Sigma-Aldrich), 10 µM ammonium iron(II) sulphate hexahydrate (catalogue no. F3754, Sigma-Aldrich) in assay buffer (50 mM HEPES (catalogue no. 15630-080, Gibco), pH 7.0, 100 mM NaCl, 0.01% Pluronic F-127, 1 mM TCEP (S16054, Shanghai Yuanye Bio-Technology Company), 2 mM ascorbic acid (A5960, Sigma-Aldrich), 0.2 mg/ml BSA (catalogue no. B2064, Sigma-Aldrich) and 1,000 U ml^−1 catalase (catalogue no. C40, Sigma-Aldrich)). The concentration of αKG used for the TET2 standard and competitive assays was 115 µM and 4,500 µM, respectively. The concentration of αKG used for the KDM4C standard and competitive assays was 10 µM and 50 µM, respectively. The concentration of αKG used in the standard assay was calculated for each enzyme batch and is the concentration of substrate at which half the maximum reaction rate is achieved. DEG and glutaric acid were used in threefold serial dilution and the maximum concentration used was 5 mM. The pre-incubation time of the inhibitors with the TET2 mixture was 30 min at room temperature. The reaction step was at room temperature for 90 min. The product was detected by using a 5 nM anti-5hmC antibody (catalogue no. 39999, Active Motif), 5 nM Eu-Protein A (catalogue no. 61PRAKLB, Cisbio), 6.25 nM streptavidin-Alexa Fluor 647 (catalogue no. S21374, Thermo Fisher Scientific) and 10 mM EDTA (catalogue no. 0369, Sigma-Aldrich). For the standard curve, the ssBiotin 26 nt HydMe-C Oligo was used. The assays were performed in technical duplicates in a 384-well plate. Inhibitor analysis was performed within the linear range of catalysis.
The percentage of inhibition was calculated with the following formula: inhibition% = (1−(signal value per well−average low control)/(average high control−average low control)) × 100. Data were fitted using Prism (GraphPad Software) with a four-parameter equation via ‘log(inhibitor) versus response−variable slope’ model.

human KDM4C enzyme = biological target: T2, human KDM4C enzyme (Homo sapiens, UniProt Q9H3R0); assay: Cell-free KDM4C enzymatic activity assay; assay type: biochemical
T2 construct: purchased BPS Bioscience 50105
Description: A total of 2 nM of the human TET2 enzyme (catalogue no. 50162, BPS Bioscience) or 4 nM of the human KDM4C enzyme (catalogue no. 50105, BPS Bioscience) was incubated with the substrate of 30 nM single-stranded DNA (ssBiotin 26 nt Me-C Oligo, Genscript), in the presence of αKG (catalogue no. K3752, Sigma-Aldrich), 10 µM ammonium iron(II) sulphate hexahydrate (catalogue no. F3754, Sigma-Aldrich) in assay buffer (50 mM HEPES (catalogue no. 15630-080, Gibco), pH 7.0, 100 mM NaCl, 0.01% Pluronic F-127, 1 mM TCEP (S16054, Shanghai Yuanye Bio-Technology Company), 2 mM ascorbic acid (A5960, Sigma-Aldrich), 0.2 mg/ml BSA (catalogue no. B2064, Sigma-Aldrich) and 1,000 U ml^−1 catalase (catalogue no. C40, Sigma-Aldrich)). […] The concentration of αKG used in the standard assay was calculated for each enzyme batch and is the concentration of substrate at which half the maximum reaction rate is achieved. […] The product was detected by using a 5 nM anti-5hmC antibody (catalogue no. 39999, Active Motif), 5 nM Eu-Protein A (catalogue no. 61PRAKLB, Cisbio), 6.25 nM streptavidin-Alexa Fluor 647 (catalogue no. S21374, Thermo Fisher Scientific) and 10 mM EDTA (catalogue no. 0369, Sigma-Aldrich). […]
The percentage of inhibition was calculated with the following formula: inhibition% = (1−(signal value per well−average low control)/(average high control−average low control)) × 100. […]

T2 sequence (Q9H3R0 2-372 limits assumed): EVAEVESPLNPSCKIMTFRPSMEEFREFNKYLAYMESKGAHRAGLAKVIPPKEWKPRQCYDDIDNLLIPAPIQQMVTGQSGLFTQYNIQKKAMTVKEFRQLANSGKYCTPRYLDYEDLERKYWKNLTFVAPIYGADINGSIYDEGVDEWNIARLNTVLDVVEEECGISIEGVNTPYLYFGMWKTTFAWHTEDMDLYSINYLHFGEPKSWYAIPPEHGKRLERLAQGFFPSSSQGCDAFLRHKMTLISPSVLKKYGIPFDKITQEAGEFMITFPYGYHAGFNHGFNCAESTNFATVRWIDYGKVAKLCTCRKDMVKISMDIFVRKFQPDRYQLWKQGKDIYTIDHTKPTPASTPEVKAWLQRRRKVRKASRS

O=C(O)CCCC(=O)O [glutarate, glutaric acid]
mode of HIF-P4H-1 inhibition ([1]; MEFs treated 16 h with DEG and dimethyl αKG): αKG-competitive | TCM populations (human CD8^+ T cells; glutarate alone (not esterified), higher doses, 10 days of culture): capable of increasing TCM populations | pIC50 (human TET2 enzyme; IC50 TET2 + 40× αKG, αKG 4,500 µM (competitive assay)): ~2.30 | pIC50 (human TET2 enzyme; IC50 recombinant TET2, cell-free): 2.82 | mode of TET2 inhibition (human TET2 enzyme; reduced inhibition with increased levels of αKG): competitive with αKG | pIC50 (human KDM4C enzyme): 3.00

CCOC(=O)CCCC(=O)OCC [DEG, Diethyl glutarate]
cellular HIF-P4H activity ([1]; MEFs, 16 h, increasing concentrations of DEG): can inhibit | TCM population (CCR7^hiCD45RO^hi) (human CD8^+ T cells; 7 days of culture with DEG): increased the TCM population | effector memory T (TEM) cell population (CCR7^loCD45RO^hi) (human CD8^+ T cells; 7 days of culture with DEG): decreased | TET2 inhibition (human TET2 enzyme; cell-free, increasing concentrations, maximum 5 mM): did not inhibit | KDM4C inhibition (human KDM4C enzyme; cell-free, DEG alone): not capable of inhibiting
